Data on one compound can be found in patent US20190083202A1, “APPARATUS AND METHODS USEFUL FOR REMODELING MAXILLOFACIAL BONE USING LIGHT THERAPY, AN ORTHODONTIC APPLIANCE, AND OPTIONALLY, VITAMIN D ADMINISTRATION” (priority 2017, published 2019).

The test in a line: Paper example: vitamin D3 supplementation with daily light and fixed orthodontic appliance. It counts as in vivo, human. The following applies: passive phase; continued vitamin D3 2000 to 12,000 IU orally per day. On the procedure:
In one example, an adult patient's Vitamin D3 blood-serum level is measured during their routine orthodontic-examination and -records appointment. Laboratory results can indicate that the patient's vitamin D3 serum levels are at 20 ng/ml, which is considered to be deficient and abnormal. In this example, the patient's orthodontic diagnosis is Class I mild crowding with 4 mm of crowding on the upper arch and 4 mm on the lower arch. An orthodontic treatment plan can be formulated to comprise the installation of a fixed orthodontic appliance with some mild expansion of the upper and lower arches.
In this example, the patient self-administers oral oil-based vitamin D3 capsules at an amount of 6000 IU per day for 3 months to increase and normalize their vitamin D3 serum levels. Laboratory serum testing can optionally be performed again after 3 months of vitamin D3 supplementation. The patient can maintains or adjusts their oral dose of vitamin D3 based on their subsequent lab results. It should be understood that there are a number of alternative oral and/or systemic dosing protocols for vitamin D administration that could be followed to achieve similar results. The dosing protocol outlined above is merely one of many approaches.
In this example, orthodontic treatment can start either after the 3 month period or no more than about three months prior. […]

Molecules are shown by their SMILES.

Regarding `C=C1CC[C@H](O)C/C1=C/C=C1\CCC[C@]2(C)[C@@H]([C@H](C)CCCC(C)C)CC[C@@H]12` [vitamin D3], the “alveolar bone density around the teeth” value was “increased”.
